This note sets out measurements from PubChem BioAssay (NCI).

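Protocol summary: plate cells (96-well), add compound at 5 concentrations, incubate 48 h, interpolate endpoints linearly. Here, GI50 denotes the concentration required for 50% inhibition of growth. Definition used: TGI = concentration required for complete inhibition of growth.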 Bounds are passed on as bounds.

Test systems include DU-145 prostate; U251 CNS; UO-31 renal; HCC-2998 colon; OVCAR-3 ovarian; MOLT-4 leukemia; OVCAR-4 ovarian; CAKI-1 renal; OVCAR-8 ovarian; NCI-H522 lung.
Common to all, as to experiment: growth of human tumour cells (NCI), 48 h

With `Cc1ccc(-c2nc(/C=N/Nc3cc(C)nc4ccc(Cl)cc34)c(C)o2)cc1`, the GI50 in the experiment on DU-145 prostate is 2.49 µM; in the experiment on U251 CNS it was 1.83 µM; with UO-31 renal, 1.62 µM; with HCC-2998 colon, 2.07 µM; in the experiment on OVCAR-3 ovarian it was 1.94 µM; with MOLT-4 leukemia, 2.02 µM. The results for the GI50 in the experiment with OVCAR-4 ovarian, with CAKI-1 renal and in the experiment on OVCAR-8 ovarian were 1.8 µM, 1.74 µM and 1.65 µM, respectively. Besides, the TGI in the experiment on DU-145 prostate was determined as 6.67 µM; in the experiment with U251 CNS, 3.39 µM; in the experiment on UO-31 renal it was 2.98 µM; with HCC-2998 colon, 3.77 µM; in the experiment with OVCAR-3 ovarian it was 3.56 µM; with MOLT-4 leukemia it was 4.88 µM. Moreover, the TGI in the experiment with OVCAR-4 ovarian is 3.42 µM; in the experiment on CAKI-1 renal, 3.19 µM; in the experiment with OVCAR-8 ovarian it was 4.13 µM.

`O=C(O)/C(Cc1ccnc2ccccc12)=N\O`: the TGI in the experiment on DU-145 prostate, in the experiment on U251 CNS, in the experiment on UO-31 renal, in the experiment on OVCAR-3 ovarian, in the experiment on MOLT-4 leukemia and with OVCAR-4 ovarian was over 100 µM in each case. The TGI with CAKI-1 renal, in the experiment on OVCAR-8 ovarian and in the experiment with NCI-H522 lung was over 100 µM throughout.

`CSc1nc2nc3c(nc2c(=O)n1C)C(=O)c1ccccc1C3=O`: the GI50 was 0.216 µM in the experiment on DU-145 prostate; 0.229 µM with U251 CNS; 0.236 µM with UO-31 renal; 0.275 µM in the experiment with HCC-2998 colon; 0.0378 µM in the experiment on OVCAR-3 ovarian; 0.227 µM in the experiment with MOLT-4 leukemia. For the same compound, the GI50 in the experiment on CAKI-1 renal was 0.3 µM; in the experiment with OVCAR-8 ovarian it was 0.225 µM; in the experiment with NCI-H522 lung it was 0.16 µM. In addition, the TGI in the experiment with DU-145 prostate was determined as 0.623 µM; with U251 CNS it was 0.612 µM; with UO-31 renal, 0.768 µM; in the experiment with HCC-2998 colon, 0.855 µM; with OVCAR-3 ovarian it was 0.21 µM; with MOLT-4 leukemia it was 0.581 µM. The TGI in the experiment on CAKI-1 renal stood at 1 µM; in the experiment on OVCAR-8 ovarian it was 0.834 µM; in the experiment with NCI-H522 lung, 0.332 µM.

As for `CN=C1C=CC(=C(c2ccc(N(C)C)cc2)c2ccc(N(C)C)cc2)C=C1`, the GI50 with DU-145 prostate was 0.274 µM; in the experiment with U251 CNS, 0.0582 µM; in the experiment with UO-31 renal, 0.317 µM; in the experiment with HCC-2998 colon it was 0.309 µM; in the experiment on OVCAR-3 ovarian it was 0.295 µM; in the experiment on MOLT-4 leukemia, 0.369 µM. The GI50 in the experiment with OVCAR-4 ovarian was 0.378 µM; in the experiment on CAKI-1 renal, 0.448 µM; in the experiment with NCI-H522 lung, 0.253 µM. In addition, the TGI in the experiment on DU-145 prostate came to 1.71 µM; in the experiment with U251 CNS, 0.682 µM; in the experiment on UO-31 renal, 1.21 µM; in the experiment on HCC-2998 colon, 1.27 µM; in the experiment with OVCAR-3 ovarian, 0.936 µM; with MOLT-4 leukemia it was 6.98 µM. Further, the TGI was determined as 2.7 µM with OVCAR-4 ovarian, 2.53 µM in the experiment with CAKI-1 renal and 0.801 µM in the experiment with NCI-H522 lung.

For `O=C(O)/C(Cc1cn[nH]n1)=N\O`, the TGI in the experiment with DU-145 prostate, with U251 CNS, with UO-31 renal, with OVCAR-3 ovarian, in the experiment on MOLT-4 leukemia and in the experiment on OVCAR-4 ovarian was over 100 µM throughout. Further, the TGI with CAKI-1 renal, in the experiment on OVCAR-8 ovarian and in the experiment with NCI-H522 lung was over 100 µM in each case.

For the compound `CN1Cc2ccccc2/C=C\c2ccccc21`, the TGI with DU-145 prostate, in the experiment on U251 CNS, in the experiment with UO-31 renal, with HCC-2998 colon, in the experiment with OVCAR-3 ovarian and in the experiment on OVCAR-4 ovarian was over 100 µM each time. In addition, the TGI with CAKI-1 renal, with OVCAR-8 ovarian and in the experiment with NCI-H522 lung was over 100 µM each time.

On to `CCC[CH2][Sn]([CH2]CCC)([S]C#N)[S]C#N`, for which the GI50 with U251 CNS was 0.768 µM; with UO-31 renal, 1.61 µM; with HCC-2998 colon it was 1.15 µM; with OVCAR-3 ovarian, 1.4 µM; in the experiment on MOLT-4 leukemia, 0.462 µM; in the experiment with OVCAR-4 ovarian, 1.34 µM. Further, the GI50 in the experiment with CAKI-1 renal is 0.32 µM; in the experiment with OVCAR-8 ovarian, 1.53 µM; with NCI-H522 lung it was 0.0451 µM. The TGI in the experiment on U251 CNS turned out to be 2.04 µM; in the experiment on UO-31 renal, 2.98 µM; with HCC-2998 colon, 2.39 µM; with OVCAR-3 ovarian it was 2.7 µM; in the experiment with MOLT-4 leukemia, 3.23 µM; in the experiment on OVCAR-4 ovarian, 2.74 µM. Besides, the results for the TGI in the experiment with CAKI-1 renal, in the experiment on OVCAR-8 ovarian and with NCI-H522 lung were 1.87 µM, 3.54 µM and 0.224 µM, respectively.

With `CCOC(=O)C(Cc1ccc(N(CCCl)CCCl)cc1)NC(=O)C(Cc1ccccc1)NC=O` (stereo not drawn), the TGI was 0.38 µM with DU-145 prostate; 0.499 µM in the experiment on U251 CNS; 0.273 µM in the experiment with UO-31 renal; 0.29 µM with OVCAR-3 ovarian; 0.161 µM in the experiment on MOLT-4 leukemia; 0.123 µM in the experiment on OVCAR-4 ovarian. Further, the TGI in the experiment with CAKI-1 renal came out at 0.264 µM; in the experiment with OVCAR-8 ovarian it was 0.527 µM; with NCI-H522 lung, 0.167 µM.

Consider `C#C[C@@]1(O)[C@@H](CO)O[C@@H](n2cc(I)c3c(N)ncnc32)[C@@H]1O`, for which the GI50 with DU-145 prostate is 0.127 µM; with U251 CNS, 0.0734 µM; in the experiment on UO-31 renal, 0.0901 µM; in the experiment on HCC-2998 colon it was 0.243 µM; in the experiment with MOLT-4 leukemia, 0.0489 µM; in the experiment on OVCAR-4 ovarian, 0.809 µM. The GI50 was 0.0456 µM in the experiment with OVCAR-8 ovarian and 0.0993 µM in the experiment with NCI-H522 lung. In addition, the TGI in the experiment on DU-145 prostate was over 100 µM; with U251 CNS, over 32 µM; with UO-31 renal, 3.19 µM; with HCC-2998 colon, 3.01 µM; in the experiment on MOLT-4 leukemia it was 0.831 µM; in the experiment on OVCAR-4 ovarian, over 100 µM. The TGI in the experiment with NCI-H522 lung amounted to 0.6 µM.

Take `CCOC(=O)c1cc(-c2ccc(-c3cc(C(=O)OCC)c(C#N)c(N)c3C#N)cc2)c(C#N)c(N)c1C#N`: the TGI with U251 CNS, in the experiment on UO-31 renal, with HCC-2998 colon, in the experiment on OVCAR-3 ovarian, with MOLT-4 leukemia and in the experiment with OVCAR-4 ovarian was over 100 µM throughout. The TGI with CAKI-1 renal, in the experiment on OVCAR-8 ovarian and with NCI-H522 lung was over 100 µM throughout.

As for `O=C(NNc1ccc(Cl)cc1)C1CCC(CNS(=O)(=O)c2ccccc2Cl)CC1` (stereo not drawn), the GI50 is 31.6 µM with DU-145 prostate; 56.2 µM in the experiment on UO-31 renal; 1.48 µM with HCC-2998 colon; 8.68 µM in the experiment on OVCAR-3 ovarian; 74.4 µM in the experiment on MOLT-4 leukemia; 2.9 µM in the experiment on CAKI-1 renal. In addition, the GI50 with OVCAR-8 ovarian is 21.6 µM; with NCI-H522 lung, 12.8 µM. The TGI in the experiment on DU-145 prostate is over 100 µM; with UO-31 renal, over 100 µM; in the experiment with HCC-2998 colon, 13.8 µM; in the experiment on OVCAR-3 ovarian, 39.8 µM; in the experiment on MOLT-4 leukemia it was over 100 µM; in the experiment with CAKI-1 renal, 12.6 µM. Further, the TGI in the experiment with OVCAR-8 ovarian was over 100 µM; in the experiment on NCI-H522 lung, 75.1 µM.
